In US20230104936A1, “TRPML MODULATORS” (Casma Therapeutics, Inc., priority 2019, published 2023) one finds AC50 data, which are given here for 24 molecules.

The subject of the experiment is TFEB. Description: TFEB nuclear translocation assay, HeLa wt cells. It counts as cell-based. The conditions noted are these: 2 hrs compound treatment, Table 1 does not say HeLa wt or TRPML1 KO. The method, boiled down:
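AC50 derived from the ratio of nuclear to perinuclear ring (−5 μm) anti-TFEB immunofluorescence, imaged at ×20 over four fields per well. HeLa wt or TRPML1 KO cells were exposed to compounds for 2 hrs at 37° C, then PFA-fixed and counterstained with Hoechst.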

Usually AC50 stands for the concentration giving half of the maximal activity seen. For `COc1ccc(CN2C(=O)C(c3ccc(Cl)cc3F)Oc3ccccc32)cc1` (stereo not drawn) [Compound A-371, 2-(4-chloro-2-fluorophenyl)-4-(4-methoxybenzyl)-2H-benzo[b][1,4]oxazin-3(4H)-one], the AC50 (Homo sapiens, HeLa, 2 h) was at most 2 µM.

On to `CC1(C)CC2(CCN(c3ccccc3NS(=O)(=O)c3ccc4c(c3)COC4(C)C)CC2)CO1` [Compound A-700, N-(2-{3,3-dimethyl-2-oxa-8-azaspiro[4.5]decan-8-yl}phenyl)-1,1-dimethyl-1,3-dihydro-2-benzofuran-5-sulfonamide], for which the AC50 (Homo sapiens, HeLa, 2 h) was 2.01 to 8 µM.

For `CC(C)(C)C(=O)N1CCN(c2ccccc2NS(=O)(=O)c2ccc(OCC(F)(F)F)cc2)CC1` [Compound A-591, N-{2-[4-(2,2-dimethylpropanoyl)piperazin-1-yl]phenyl}-4-(2,2,2-trifluoroethoxy)benzene-1-sulfonamide], where the note is “Homo sapiens, HeLa, 2 h”, the AC50 was at least 10 µM.

`CN(C)S(=O)(=O)c1ccc(S(=O)(=O)Nc2ccccc2N2CCOCC2)cc1` [Compound A-770, N1,N1-dimethyl-N4-[2-(morpholin-4-yl)phenyl]benzene-1,4-disulfonamide] registered an AC50 (Homo sapiens, HeLa, 2 h) of at least 10 µM.

`CN(C)S(=O)(=O)c1ccc(S(=O)(=O)Nc2cccc(F)c2N2CCC(CN3CCCC(F)(F)C3)CC2)cc1` [Compound A-773, N4-(2-{4-[(3,3-difluoropiperidin-1-yl)methyl]piperidin-1-yl}-3-fluorophenyl)-N1,N1-dimethylbenzene-1,4-disulfonamide] showed an AC50 (Homo sapiens, HeLa, 2 h) of at most 2 µM.

The molecule `CC(c1cccc(F)c1N1CCCCC1)S(=O)(=O)c1ccc2c(c1)CCS2(=N)=O` (single isomer, unassigned) [Compound A-959] returned an AC50 (Homo sapiens, HeLa, 2 h) of at least 10 µM.

On to `CC(C)(C)C(=O)N1CCN(c2ccccc2NS(=O)(=O)Cc2ccc(Br)cc2F)CC1` [Compound A-488, 1-(4-bromo-2-fluorophenyl)-N-{2-[4-(2,2-dimethylpropanoyl)piperazin-1-yl]phenyl}methanesulfonamide], for which the AC50 (Homo sapiens, HeLa, 2 h) was 8.01 to 9.99 µM.

The molecule `COc1ccc(S(=O)(=O)Nc2ccccc2N2CCC(Oc3ccc(F)cc3F)CC2)cc1` [Compound A-196, N-{2-[4-(2,4-difluorophenoxy)piperidin-1-yl]phenyl}-4-methoxybenzene-1-sulfonamide] came in with an AC50 (Homo sapiens, HeLa, 2 h) of at most 2 µM.

Take `COCC1(C)CCN(c2c(NS(=O)(=O)c3ccc(S(=O)(=O)N(C)C)cc3)ccc3ccnn23)CC1` [Compound A-822, N4-{7-[4-(methoxymethyl)-4-methylpiperidin-1-yl]pyrazolo[1,5-a]pyridin-6-yl}-N1,N1-dimethylbenzene-1,4-disulfonamide]: for the setting “Homo sapiens, HeLa, 2 h”, the AC50 lay in the range of 2.01 to 8 µM.

In turn, `CC(C)(C)C(=O)N1CCN(c2ccccc2NS(=O)(=O)Cc2cccc3cccnc23)CC1` [Compound A-565, N-{2-[4-(2,2-dimethylpropanoyl)piperazin-1-yl]phenyl}-1-(quinolin-8-yl)methanesulfonamide] showed an AC50 (Homo sapiens, HeLa, 2 h) of 8.01 to 9.99 µM.

Molecule `CC(C)CN1CCN(c2ccccc2CS(=O)(=O)c2ccc(S(=O)(=O)N(C)C)cc2)CC1` [Compound A-599, N,N-dimethyl-4-({2-[4-(2-methylpropyl)piperazin-1-yl]phenyl}methanesulfonyl)benzene-1-sulfonamide] came in with an AC50 (Homo sapiens, HeLa, 2 h) of 2.01 to 8 µM.

The molecule `CC(c1ccncc1N1CCC(CN2C[C@@H](C)O[C@@H](C)C2)CC1)S(=O)(=O)c1ccc(S(=O)(=O)N(C)C)cc1` (stereo partly drawn) [Compound A-850, 4-{1-[3-(4-{[(2R,6S)-2,6-dimethylmorpholin-4-yl]methyl}piperidin-1-yl)pyridin-4-yl]ethanesulfonyl}-N,N-dimethylbenzene-1-sulfonamide] showed an AC50 (Homo sapiens, HeLa, 2 h) of 2.01 to 8 µM.

With `CN(C)S(=O)(=O)c1ccc(S(=O)(=O)Nc2ccccc2N2CCN(C3CCCOC3)CC2)cc1` (stereo not drawn) [Compound A-450, N1,N1-dimethyl-N4-{2-[4-(oxan-3-yl)piperazin-1-yl]phenyl}benzene-1,4-disulfonamide], for the setting “Homo sapiens, HeLa, 2 h”, the AC50 is 8.01 to 9.99 µM.

As to `CN(C)S(=O)(=O)c1ccc(S(=O)(=O)Nc2ccccc2N2CCC(COC(F)(F)CF)CC2)cc1` [Compound A-797, N1,N1-dimethyl-N4-(2-{4-[(1,1,2-trifluoroethoxy)methyl]piperidin-1-yl}phenyl)benzene-1,4-disulfonamide], under “Homo sapiens, HeLa, 2 h”, the AC50 is at most 2 µM.

Consider `CC(c1cc(Cl)cnc1N1CCC(CN2CCC(F)(F)CC2)CC1)S(=O)(=O)c1ccc(S(=O)(=O)N(C)C)cc1` (stereo not drawn) [Compound A-958, 4-[1-(5-chloro-2-{4-[(4,4-difluoropiperidin-1-yl)methyl]piperidin-1-yl}pyridin-3-yl)ethanesulfonyl]-N,N-dimethylbenzene-1-sulfonamide], for which, under “Homo sapiens, HeLa, 2 h”, the AC50 is at most 2 µM.

`CC(Nc1ccccc1N1CCC(c2ccc(Cl)cc2F)CC1)c1ccc(S(=O)(=O)N(C)C)cc1` (stereo not drawn) [Compound A-443, 4-[1-({2-[4-(4-chloro-2-fluorophenyl)piperidin-1-yl]phenyl}amino)ethyl]-N,N-dimethylbenzene-1-sulfonamide] registered a half-maximal activity concentration (AC50) (Homo sapiens, HeLa, 2 h) of 2.01 to 8 µM.

Where the note is “Homo sapiens, HeLa, 2 h”, `COCC1(C)CCN(c2ccccc2NS(=O)(=O)Cc2cccc(Cl)c2)CC1` [Compound A-602, 1-(3-chlorophenyl)-N-{2-[4-(methoxymethyl)-4-methylpiperidin-1-yl]phenyl}methanesulfonamide] came in with an AC50 of 2.01 to 8 µM.

On to `CN1CCN(CCCS(=O)(=O)Nc2ccccc2N2CCN(C(=O)C(C)(C)C)CC2)CC1` [Compound A-417, N-{2-[4-(2,2-dimethylpropanoyl)piperazin-1-yl]phenyl}-3-(4-methylpiperazin-1-yl)propane-1-sulfonamide], for which the AC50 (Homo sapiens, HeLa, 2 h) was 2.01 to 8 µM.

For the setting “Homo sapiens, HeLa, 2 h”, `CN(C)S(=O)(=O)c1ccc(S(=O)(=O)Nc2ccccc2N2CCC(O)(C3CC3)CC2)cc1` [Compound A-420, N4-[2-(4-cyclopropyl-4-hydroxypiperidin-1-yl)phenyl]-N1,N1-dimethylbenzene-1,4-disulfonamide] gave an AC50 of 2.01 to 8 µM.

`C[C@@H]1CN(CC2CCN(c3c(F)cccc3[C@@H](C)S(=O)(=O)c3ccc(S(=N)(=O)N(C)C)cc3)CC2)C[C@H](C)O1` (single isomer, unassigned) [Compound A-903] showed an AC50 of at least 10 µM.

For the setting “Homo sapiens, HeLa, 2 h”, `CN(C)S(=O)(=O)c1ccc(S(=O)(=O)n2c(=O)n(C3CCN(c4ccc(Cl)cc4F)CC3)c3ccccc32)cc1` [Compound A-63, 4-({3-[1-(4-chloro-2-fluorophenyl)piperidin-4-yl]-2-oxo-2,3-dihydro-1H-1,3-benzodiazol-1-yl}sulfonyl)-N,N-dimethylbenzene-1-sulfonamide] displayed an AC50 of 2.01 to 8 µM.

In the case of `Cc1ccc(S(=O)(=O)Nc2ccccc2N2CCC(c3ccc(Cl)cc3F)C2)cc1` (stereo not drawn) [Compound A-102, N-{2-[3-(4-chloro-2-fluorophenyl)pyrrolidin-1-yl]phenyl}-4-methylbenzene-1-sulfonamide], the AC50 (Homo sapiens, HeLa, 2 h) lay in the range of 2.01 to 8 µM.

Consider `CS(=O)(=O)c1ccc(S(=O)(=O)Nc2ccccc2N2CCC3(CC2)CN(CC2CCOC2)c2cc(F)ccc23)cc1` (stereo not drawn) [Compound A-423, N-(2-{6-fluoro-1-[(oxolan-3-yl)methyl]-1,2-dihydrospiro[indole-3,4′-piperidin]-1′-yl}phenyl)-4-methanesulfonylbenzene-1-sulfonamide], for which the AC50 (Homo sapiens, HeLa, 2 h) is at most 2 µM.

Turning to `C[C@@H]1CN(CC2CCN(c3ccccc3NS(=O)(=O)c3cnn(CC4CC4)c3)CC2)C[C@H](C)O1` [Compound A-772, 1-(cyclopropylmethyl)-N-[2-(4-[(2R,6S)-2,6-dimethylmorpholin-4-yl]methylpiperidin-1-yl)phenyl]-1H-pyrazole-4-sulfonamide], the AC50 (Homo sapiens, HeLa, 2 h) lay in the range of 8.01 to 9.99 µM.
